According to patent publication US10921327B2, “Probes for quantitative imaging of thiols in various environments” (Baylor College of Medicine, priority 2014, dated 2021):
Where “and” joins values, the source holds several entries; their conditions need not be identical. Equal entries are not always repeated.

Assay: UV-Vis absorption, fluorescence and quantum yield
Format: physicochemical
Settings: for Quantum Yield (PBS): λex = 479 nm (TQ Green), 406 nm (TQ Green-GSH); for Quantum Yield (Methanol): Rhodamine 123 as standard
Text: TQ Green absorbs at 479 nm and fluoresces at 590 nm (λex=488 nm, FIG. 3). The extinction coefficients of TQ Green and TQ Green-GSH at their maximum absorption wavelengths are (2.3±0.2)×10^4 M^−1·cm^−1 (a, =479 nm, Table 2) and (1.6±0.2)×10^4 M^−1·cm^−1 (λmax=407 nm, Table 1), respectively. Upon reacting with GSH, the Abs and Fl peaks shift hypsochromically to 406 and 463 nm (λex=405 nm), respectively. The Abs of TQ Green and TQ Green-GSH (the adduct between TQ Green and GSH) are close to 488 and 405 nm, respectively, which are two commonly used laser wavelengths for confocal microscopes. […]
NMR spectra were recorded on a Varian NMR (^1H at 400 MHz) spectrometer. Chemical shifts (δ) were given in ppm with reference to solvent signals [^1H NMR: CDCl3 (7.26), CD3OD (3.31)]. UV-Vis measurements were performed with 2×10 mm quartz cuvette in Cary 60 UV-is Spectrometer. Fluorescence measurements were performed with the same quartz cuvette in Cary Eclipse Fluorescence Spectrophotometer with an excitation slit of 5 nm, an emission slit of 10 nm and PMT at 650 V. Flash chromatography was performed on a Teledyne ISCO CombiFlashRf200. Olympus FV1000 laser scanning confocal microscope system was used for cell imaging. ESI mass spectrometry was measured on a BrukerMS microTOF ESI, at the Shared Equipment Authority at Rice University. Flow cytometry was performed on BD LSR II Flow Cytometer at BCM core facilities.
As summarized in Table 5, quantum yields of synthesized GSH probes and a GSH adduct with Rhodamine 123 as the standard were analyzed. Quantum yields were determined using a comparative method described previously. The bromine atom on the phenyl ring potentially enhances the push-pull effect of the coumarin-based fluorophore, thus increases the quantum yield.

Q: Which results are given for `CCN(CC)c1ccc2cc(/C=C/C(=O)c3ccc(C(=O)O)cc3Br)c(=O)oc2c1` [TQ Green]?
A: Abs Max Wavelength (PBS pH 7.4): 479 nm and 480 nm; Fl Emission Max Wavelength (PBS pH 7.4, λex = 488 nm (TQ Green), λex = 405 nm (TQ Green-GSH)): 590 nm; Quantum Yield (PBS): 0.0094±0.0004; Quantum Yield (PBS) (listed as drawing 19): 0.0094 ± 0.0004; Quantum Yield (Methanol): 0.16±0.05; Quantum Yield (Methanol) (listed as drawing 18): 0.16 ± 0.05; Absorbance maximum in octanol (octanol): 455 nm
